From PubChem BioAssay AID1329 (NMMLSC, 2008) come the findings set out here.

Active and inactive are the calls of the source. No rule for the calls is given here.

For the test, the target named is Induced myeloid leukemia cell differentiation protein Mcl-1 (Homo sapiens) (UniProt Q07820). The test is described as follows: modulators of Bim peptide binding to Mcl-1, dose response, biochemical, bead-based flow cytometry, multiplexed, human (AID 1329). Particulars: Bim peptide-Mcl-1 binding, MCF. For orientation: Flow cytometry measures light scatter and fluorescence of single cells or particles in a stream.
Chain of Induced myeloid leukemia cell differentiation protein Mcl-1 (Homo sapiens) (Q07820 whole entry, looked up): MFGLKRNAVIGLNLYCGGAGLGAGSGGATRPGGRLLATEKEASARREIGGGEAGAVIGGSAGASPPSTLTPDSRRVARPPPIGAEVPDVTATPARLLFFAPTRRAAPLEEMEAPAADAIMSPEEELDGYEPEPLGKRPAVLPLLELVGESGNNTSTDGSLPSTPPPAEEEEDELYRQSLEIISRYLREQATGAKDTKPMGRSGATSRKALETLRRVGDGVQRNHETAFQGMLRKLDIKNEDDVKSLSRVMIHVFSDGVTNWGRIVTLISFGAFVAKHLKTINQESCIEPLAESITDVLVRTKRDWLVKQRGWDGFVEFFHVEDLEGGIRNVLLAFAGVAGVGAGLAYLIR
For `Cc1ccc(/C=N/N(C)C2=NS(=O)(=O)c3ccccc32)o1`, the percent span result is “inactive”.
With `Cc1c(Cc2ccccc2)sc(N)c1C(N)=O` the entry was “inactive”; with `N#CC(C#N)=C1C=CC=CN1/C(=C\c1ccco1)C(=O)c1ccccc1`, “inactive”; with `CCOC(=O)c1[nH]cnc1C(=O)NC(C)C`, “inactive”.
Take `OC(CNC1CCCCC1)COCCOc1ccc(Br)cc1` (stereo not drawn): the percent span result was “inactive”.
`COc1cccc(/C=N/NC(=O)c2cc3cc([N+](=O)[O-])ccc3s2)c1O`: the percent span entry is “inactive”.
With `COCCN=c1scc(-c2ccco2)n1/N=C/c1ccc(O)c(O)c1O` the entry was “inactive”; with `CC1C=CCC2C(=O)N(c3ccc(OC(=O)c4cccs4)cc3)C(=O)C12` (stereo not drawn), “inactive”.
For the molecule `N#Cc1cccc(N=c2ssnc2Cl)c1`, the percent span entry is “inactive”.
As for `C/C(=N\NC(=O)COc1ccc(C(C)(C)C)cc1)c1ccc2c(c1)OCCO2`, the percent span entry was “inactive”.
`Cc1ccc(Nc2nc(CSc3nnc(-c4cccnc4)n3-c3ccccc3C)cs2)cc1`: the percent span entry is “inactive”.
`Cc1ccc(S(=O)(=O)NC(=O)COc2ccccc2C)cc1`: the percent span result is “inactive”.
With `Cn1c(=O)c(C(=O)COC(=O)c2cc(-c3ccco3)nc3ccccc23)c(N)n(Cc2ccccc2)c1=O` the entry was “inactive”; with `CCc1nnc(NC(=O)CSc2nnc(COc3ccc(C)cc3)n2-c2ccccc2)s1`, “inactive”.
On to `CCN(CC)c1ccc(-c2nn3c(-c4cccnc4)nnc3s2)cc1`, for which the percent span entry is “inactive”.
`O=C(NCCO)c1ccc2nc(-c3ccco3)c(-c3ccco3)nc2c1`: the percent span entry was “inactive”.
As for `Cc1ccc(C)c(Oc2ncnc(N)c2[N+](=O)[O-])c1`, the percent span entry is “inactive”.
Consider `c1csc(C2=Nn3c(nnc3-c3ccncc3)SC2)c1`, for which the percent span result was “inactive”.
As for `COc1cccc2c1C(=O)C=C(C)C2=O`, the percent span result was “inactive”.
With `O=C(c1cnccn1)N(Cc1cccs1)C1(C(=O)NC2CCCCC2)CCCCC1`, the percent span entry was “inactive”.
`CCc1nn2cc(C(=O)c3cc(C)ccc3O)cnc2c1-c1ccc(F)cc1`: the percent span entry was “inactive”.
On to `COc1ccc(-n2c(NC(=O)c3ccco3)c(C#N)c3nc4ccccc4nc32)cc1`, for which the percent span entry was “inactive”.
With `O=C(Nc1ccccc1)Nc1ccc2ncoc2c1`, the percent span result is “inactive”.
With `CN=c1scc(C)n1/N=C/c1ccc(O)c(O)c1O` the entry was “inactive”.
For `COCc1cc(CN2CCCC(CNC(=O)c3ccc(F)cc3)C2)ccc1OC` (stereo not drawn), the percent span result is “inactive”.
Turning to `CCCC(=O)OCCNc1cc(Sc2nccn2C)c2nonc2c1[N+](=O)[O-]`, the percent span result is “inactive”.
On to `Cc1ccc(/C=C/C(=O)c2ccccc(=O)c2O)c(C)c1`, for which the percent span result is “inactive”.
Regarding `O=[N+]([O-])c1ccc2[nH]nc(-c3ccccc3)c2c1`, the percent span result is “inactive”.
Take `Cc1ccc2c(c1)c(C)c(C)n2CC(O)Cn1nc(C)c(Br)c1C` (stereo not drawn): the percent span result is “inactive”.
With `CNC(=O)/C(C#N)=C/c1c(N(Cc2ccccc2)Cc2ccccc2)nc2c(C)cccn2c1=O`, the percent span result was “inactive”.
For `COc1cccc(/C=C2/SC(=O)N(C)C2=O)c1OCc1ccc(C(=O)O)cc1`, the percent span result is “inactive”.
With `O=C(O)CCN1C(=O)/C(=C\c2ccc(-c3nc4ccccc4s3)o2)SC1=S` the entry was “inactive”.
Turning to `COc1ccc(-n2cc(-c3ccc(OC)c(OC)c3)[nH]c2=S)cc1`, the percent span entry was “inactive”.
With `O=C(O)CC/C(=C\c1cc([N+](=O)[O-])ccc1Cl)c1nc2ccccc2s1` the entry was “inactive”; with `COc1ccc2nc(-c3ccco3)c(-c3ccco3)nc2c1`, “inactive”; with `CCNC(=S)Nc1ccc(OCC)cc1`, “inactive”.
In the case of `Cc1ccc(-c2cc(C(=O)Nc3ccccc3C)c3ccccc3n2)o1`, the percent span result is “inactive”.
With `CCOc1ccccc1NC(=O)CSc1nnc2ccc(-c3cccnc3)nn12`, the percent span entry is “inactive”.
Regarding `C=CCn1c(SCC(=O)Nc2ccc3c(c2)OCO3)nnc1-c1cc(Br)ccc1O`, the percent span entry was “inactive”.
Take `CNC(=S)N(Cc1cccs1)Cc1cc2ccc(OC)cc2[nH]c1=O`: the percent span result was “inactive”.
For `C=CCn1c(C)cc(-c2csc(NC)n2)c1C`, the percent span result was “inactive”.
`Nc1ccc(N2CCCCCC2)cc1`: the percent span entry is “inactive”.
On to `COc1ccc(N2CCN(C(CNS(=O)(=O)c3ccc4c(c3)OCCO4)c3ccco3)CC2)cc1` (stereo not drawn), for which the percent span entry was “inactive”.
Regarding `Cc1ccc(O)c(NC2=C(Cl)C(=O)N(Cc3ccccc3)C2=O)c1`, the percent span entry was “inactive”.
With `Nc1ccc(-c2cn3cccnc3n2)cc1` the entry was “inactive”.
In the case of `CN(CCO)c1cc(Sc2nc3ccccc3s2)c2nonc2c1[N+](=O)[O-]`, the percent span entry was “inactive”.
Consider `O=C(C1=NN[C@@H]2C(=O)N(c3ccccc3C(F)(F)F)C(=O)[C@H]12)c1ccc2ccccc2n1`, for which the percent span result was “inactive”.
On to `Cc1cccc(N=C2NC(=O)/C(=C/C=C/c3ccco3)S2)c1C`, for which the percent span entry is “inactive”.
For `CCc1cccc(NC(=O)COc2ccccc2)c1`, the percent span entry was “inactive”.
With `CC1CC2=C(NC(=S)NC2c2cccc(F)c2)/C(=C/c2cccc(F)c2)C1` (stereo not drawn), the percent span entry was “inactive”.
Turning to `c1ccc(-c2nc(N3CCCCC3)nc3ccccc23)cc1`, the percent span result is “inactive”.
With `Cc1ccc(-c2cc(-c3ccccc3Cl)c(C#N)c(N)n2)o1` the entry was “inactive”; with `COc1ccc(C)cc1Nc1ccc(C(=O)O)cc1[N+](=O)[O-]`, “inactive”; with `CNCc1ccccc1Sc1cc(O)ccc1O`, “inactive”.
`Cc1nc(=S)c2ccccc2[nH]1`: the percent span entry was “inactive”.
With `NC(=O)c1sc2nc3c(c(-c4ccco4)c2c1N)CCC3`, the percent span result is “inactive”.
With `CCN(CC)c1ccc(-c2nn3c(-c4n[nH]c5c4CCC5)nnc3s2)cc1` the entry was “inactive”; with `COc1cc(/C=C2\CC/C(=C\c3cc(OC)c(O)c(OC)c3)C2=O)cc(OC)c1O`, “inactive”.
On to `CCn1cc(C=C2C(=O)c3ccccc3C2=O)c2ccccc21`, for which the percent span result was “inactive”.
`COc1cc(CNc2ccc3[nH]c(=O)[nH]c3c2)cc(Br)c1OCC(=O)NC(C)(C)C`: the percent span result was “inactive”.
As to `O=C(NCCCN1CCCC1=O)NC1CCCCC1`, the percent span entry was “inactive”.
With `CCCCNC(=O)c1ccc2nc(-c3ccco3)c(-c3ccco3)nc2c1`, the percent span result is “inactive”.
For `COc1ccc(CCNC(=O)c2cc(-c3ccccn3)nc3c(Cl)cccc23)cc1OC`, the percent span entry is “inactive”.
Take `O=C(Nc1ccccc1N1CCOCC1)c1cccs1`: the percent span result was “inactive”.
Turning to `O=C1N/C(=C/c2cccn2-c2ccccc2)C(=O)N1Cc1ccc(F)cc1`, the percent span entry was “inactive”.
In the case of `O=C(O)CC1S/C(=N/N=C/C=C/c2ccccc2[N+](=O)[O-])NC1=O` (stereo not drawn), the percent span entry is “inactive”.
`Cc1ccc(-c2cc(C(=O)N3CCN(c4ncccn4)CC3)c3cc(Br)ccc3n2)o1`: the percent span result was “inactive”.
As for `Nc1ccccc1N=c1ssnc1Cl`, the percent span result is “inactive”.
With `CCOCCOc1nc2c(c(=O)n(C)c(=O)n2C)n1CCc1ccccc1`, the percent span entry was “inactive”.
With `O=C1c2ccccc2C(=O)c2cc(S(=O)(=O)Nc3ccccc3)ccc21` the entry was “inactive”; with `Nc1c(C(=O)NCc2ccco2)sc2nc3c(cc12)C(=O)CCC3`, “inactive”; with `O=C(/C=C/c1ccc(-c2ccccc2[N+](=O)[O-])o1)c1ccc(F)cc1`, “inactive”.
Turning to `Cc1occc1C(=O)NNC(=S)NCc1ccccc1`, the percent span entry was “inactive”.
Consider `COc1ccc(NC(=O)c2sccc2SCc2cccc(C(F)(F)F)c2)cc1`, for which the percent span result was “inactive”.
Take `O=c1[nH]c(SCc2nc3ccccc3c(=O)n2-c2ccccc2C(F)(F)F)nc2ccccc12`: the percent span result is “inactive”.
On to `Cc1ccc(-n2nc(C)c(C(=O)O)n2)c(C)c1`, for which the percent span result was “inactive”.
With `Cc1ccc(C2=N/C(=C/c3cccs3)C(=O)N2Nc2ccccc2)cc1` the entry was “inactive”; with `COc1ccccc1Cn1nnc2c(=O)[nH]c(C3CCN(C(=O)c4ccc(C)cc4)CC3)nc21`, “inactive”.
For the molecule `CC(=O)OCCCNc1cc(Sc2nc3ccccc3s2)c2nonc2c1[N+](=O)[O-]`, the percent span entry was “inactive”.
With `CC(C)Cc1cc(-c2ccco2)c(C#N)c(N)n1` the entry was “inactive”; with `CC1N(C)c2cccc3cccc(c23)N1C`, “inactive”.
With `COCCN=c1scc(-c2cccs2)n1/N=C/c1ccc(O)c(O)c1O` the entry was “inactive”; with `CCOc1c(Cl)cc(CNc2ccc(N3CCCC3)cc2)cc1OC`, “inactive”.
`Cc1cnnn1-c1ccc(C(=O)CCl)cc1`: the percent span result is “inactive”.
Turning to `NNC(=O)COc1ccccc1F`, the percent span entry was “inactive”.
With `CN(C)c1ccc(Nc2nc(-c3cccnc3)cs2)cc1` the entry was “inactive”.
As to `CCN1/C(=C/c2ccc3cc(C)ccc3[n+]2CC)Sc2cc(C)c(C)cc21`, the percent span result is “inactive”.
With `O=C(CSc1ccc(-c2ccccc2)nn1)NCc1ccco1` the entry was “inactive”; with `CCN1CCN(c2ccc(NC(=O)c3ccc4c(c3)[nH]c(=O)n4Cc3ccc(OC)cc3)cc2)CC1`, “inactive”; with `COC(=O)/C(=C/c1ccc(F)cc1)NC(C)=O`, “inactive”.
In the case of `CN(C)c1ccc(C=C2C(=O)NC(=O)NC2=O)cc1[N+](=O)[O-]`, the percent span entry was “inactive”.
With `Cc1ccc(NN2C(=O)C=CC2=O)cc1` the entry was “inactive”; with `O=C(NCCN1CCOCC1)c1cc(Cl)ccc1[N+](=O)[O-]`, “inactive”.
